In experiment [1] the test system is MCF-7. Kind of experiment: Inhibition of proliferation of MCF-7 cells. Type of experiment: cell-based. As to conditions: Homo sapiens, MCF7; Breast cancer cell line MCF-7; read-out: IC50 against MCF-7. How it is done: (§1) 1) CWR22RV1 cells were subcultured in cell culture medium, and the cells in good growth condition were seeded in a 96-well plate, 80 μL for each well, and the cell number in each well was 1500. The plate was incubated overnight in a 37° C., 5% CO2 cell incubator. 2) The drug was prepared as 30 mM stock solution with dimethyl sulfoxide (DMSO). Prior to use, the stock solution was diluted 3 times with DMSO, and then further diluted as 3-fold gradient to obtain 9 concentration gradients. Then, each concentration of compound was diluted 200 times with the culture solution (ensuring that the DMSO concentration in the culture system was 0.1%), and two replicate wells were set for each concentration. 20 μL of diluted compound solution was added to the cell culture well (with final concentrations of 10 μM, 3.3 μM. 1.1 μM . . . ), and the plate was gently shaken to mix. In addition, 3 negative control wells containing only cells and 3 blank control wells containing only culture medium were included (6 wells were each added 20 μL DMSO diluted 200 times with culture medium). 2. Result detection: (1) After culturing for 6 days, 10 μL CCK-8 was added to each well, and the plate was continually cultured in a 37° C., 5% CO2 cell incubator for 2.5 h. (2) The absorbance (OD value) was detected at 450 nm using a multifunctional microplate reader. (3) The data were analyzed by Dose-response-inhibition equation in the software GraphPad Prism6, and the IC50 value was obtained.
(§2) Using the same method as Experimental example 2, CWR22RV1 cells were replaced with tumor cells in Table 3, and the IC50 (nM) of the compound according to the present invention against the activity of these tumor cells was tested and calculated.

Experiment [2] deals with MLMA. Kind of experiment: Inhibition of proliferation of MLMA cells. Type of experiment: cell-based. Conditions: Lymphoma cell line MLMA; read-out: IC50 against MLMA. The method, then: as §1, §2
Experiment [3] deals with TALL-1. Kind of experiment: Inhibition of proliferation of TALL-1 cells. Format: cell-based. Conditions: Homo sapiens; Leukemia cell line TALL-1; read-out: IC50 against TALL-1. How it is done:
as §1, §2

Experiment [4] has as its system LNCAP-AR. Kind of experiment: Inhibition of proliferation of LNCAP-AR cells. As to conditions: Prostate cancer cell line LNCAP-AR; read-out: IC50 against LNCAP-AR. Format: cell-based. The method, then: as §1, §2
Experiment [5] relates to MCF-7 cells. Kind of experiment: Compound in combination with CDK4/6 inhibitor palbociclib against proliferation of MCF-7 cells. Type of experiment: cell-based. Conditions: for IC50: Homo sapiens. The method, then: 1) CWR22RV1 cells were subcultured in cell culture medium, and the cells in good growth condition were seeded in a 96-well plate, 60 μL for each well, and the cell number in each well was 2000. The plate was incubated overnight in a 37° C., 5% CO2 cell incubator. 2) The drug was prepared as 10 mM stock solution with dimethyl sulfoxide (DMSO). Prior to use, the stock solution was diluted 3 times with DMSO, and then further diluted as 3-fold gradient to obtain 9 concentration gradients. Then, each concentration of compound was diluted 200 times with the culture solution (ensuring that the DMSO concentration in the culture system was 0.1%), and two replicate wells were set for each concentration. 20 μL of diluted compound solution was added to the cell culture well (with final concentrations of 10 μM, 3.3 μM, 1.1 μM . . . ). Palbociclib was diluted with culture medium to 500 nM, 150 nM, 50 nM, 5 nM, and 20 μL diluted compound solution was added to the corresponding cell culture wells (with a final concentration of 100 nM, 30 nM, 10 nM, 1 nM). The plate was gently shaken to mix. In addition, 3 negative control wells containing only cells and 3 blank control wells containing only culture medium were included (6 wells were each added 20 μL DMSO diluted 200 times with culture medium).
(1) After culturing for 6 days, 10 μL CCK-8 was added to each well, and the plate was continually cultured in a 37° C., 5% CO2 cell incubator for 2.5 h. (2) The absorbance (OD value) was detected at 450 nm using a multifunctional microplate reader. (3) The data were analyzed by Dose-response-inhibition equation in the software GraphPad Prism6, and the IC50 value was obtained.
Using the same method as Experimental example 4, CWR22RV1 cells were replaced with MCF-7 cells, and the IC50 values (nM) of the compound according to the present invention, palbociclib, as well as the combination of the compound according to the present invention and palbociclib against the proliferation of MCF-7 cells w ere tested and calculated.

The target of experiment [6] is T1, histone acetylase p300 (Homo sapiens, UniProt Q09472).
T1 construct: purchased BPS
T1 sequence (Q09472 whole entry): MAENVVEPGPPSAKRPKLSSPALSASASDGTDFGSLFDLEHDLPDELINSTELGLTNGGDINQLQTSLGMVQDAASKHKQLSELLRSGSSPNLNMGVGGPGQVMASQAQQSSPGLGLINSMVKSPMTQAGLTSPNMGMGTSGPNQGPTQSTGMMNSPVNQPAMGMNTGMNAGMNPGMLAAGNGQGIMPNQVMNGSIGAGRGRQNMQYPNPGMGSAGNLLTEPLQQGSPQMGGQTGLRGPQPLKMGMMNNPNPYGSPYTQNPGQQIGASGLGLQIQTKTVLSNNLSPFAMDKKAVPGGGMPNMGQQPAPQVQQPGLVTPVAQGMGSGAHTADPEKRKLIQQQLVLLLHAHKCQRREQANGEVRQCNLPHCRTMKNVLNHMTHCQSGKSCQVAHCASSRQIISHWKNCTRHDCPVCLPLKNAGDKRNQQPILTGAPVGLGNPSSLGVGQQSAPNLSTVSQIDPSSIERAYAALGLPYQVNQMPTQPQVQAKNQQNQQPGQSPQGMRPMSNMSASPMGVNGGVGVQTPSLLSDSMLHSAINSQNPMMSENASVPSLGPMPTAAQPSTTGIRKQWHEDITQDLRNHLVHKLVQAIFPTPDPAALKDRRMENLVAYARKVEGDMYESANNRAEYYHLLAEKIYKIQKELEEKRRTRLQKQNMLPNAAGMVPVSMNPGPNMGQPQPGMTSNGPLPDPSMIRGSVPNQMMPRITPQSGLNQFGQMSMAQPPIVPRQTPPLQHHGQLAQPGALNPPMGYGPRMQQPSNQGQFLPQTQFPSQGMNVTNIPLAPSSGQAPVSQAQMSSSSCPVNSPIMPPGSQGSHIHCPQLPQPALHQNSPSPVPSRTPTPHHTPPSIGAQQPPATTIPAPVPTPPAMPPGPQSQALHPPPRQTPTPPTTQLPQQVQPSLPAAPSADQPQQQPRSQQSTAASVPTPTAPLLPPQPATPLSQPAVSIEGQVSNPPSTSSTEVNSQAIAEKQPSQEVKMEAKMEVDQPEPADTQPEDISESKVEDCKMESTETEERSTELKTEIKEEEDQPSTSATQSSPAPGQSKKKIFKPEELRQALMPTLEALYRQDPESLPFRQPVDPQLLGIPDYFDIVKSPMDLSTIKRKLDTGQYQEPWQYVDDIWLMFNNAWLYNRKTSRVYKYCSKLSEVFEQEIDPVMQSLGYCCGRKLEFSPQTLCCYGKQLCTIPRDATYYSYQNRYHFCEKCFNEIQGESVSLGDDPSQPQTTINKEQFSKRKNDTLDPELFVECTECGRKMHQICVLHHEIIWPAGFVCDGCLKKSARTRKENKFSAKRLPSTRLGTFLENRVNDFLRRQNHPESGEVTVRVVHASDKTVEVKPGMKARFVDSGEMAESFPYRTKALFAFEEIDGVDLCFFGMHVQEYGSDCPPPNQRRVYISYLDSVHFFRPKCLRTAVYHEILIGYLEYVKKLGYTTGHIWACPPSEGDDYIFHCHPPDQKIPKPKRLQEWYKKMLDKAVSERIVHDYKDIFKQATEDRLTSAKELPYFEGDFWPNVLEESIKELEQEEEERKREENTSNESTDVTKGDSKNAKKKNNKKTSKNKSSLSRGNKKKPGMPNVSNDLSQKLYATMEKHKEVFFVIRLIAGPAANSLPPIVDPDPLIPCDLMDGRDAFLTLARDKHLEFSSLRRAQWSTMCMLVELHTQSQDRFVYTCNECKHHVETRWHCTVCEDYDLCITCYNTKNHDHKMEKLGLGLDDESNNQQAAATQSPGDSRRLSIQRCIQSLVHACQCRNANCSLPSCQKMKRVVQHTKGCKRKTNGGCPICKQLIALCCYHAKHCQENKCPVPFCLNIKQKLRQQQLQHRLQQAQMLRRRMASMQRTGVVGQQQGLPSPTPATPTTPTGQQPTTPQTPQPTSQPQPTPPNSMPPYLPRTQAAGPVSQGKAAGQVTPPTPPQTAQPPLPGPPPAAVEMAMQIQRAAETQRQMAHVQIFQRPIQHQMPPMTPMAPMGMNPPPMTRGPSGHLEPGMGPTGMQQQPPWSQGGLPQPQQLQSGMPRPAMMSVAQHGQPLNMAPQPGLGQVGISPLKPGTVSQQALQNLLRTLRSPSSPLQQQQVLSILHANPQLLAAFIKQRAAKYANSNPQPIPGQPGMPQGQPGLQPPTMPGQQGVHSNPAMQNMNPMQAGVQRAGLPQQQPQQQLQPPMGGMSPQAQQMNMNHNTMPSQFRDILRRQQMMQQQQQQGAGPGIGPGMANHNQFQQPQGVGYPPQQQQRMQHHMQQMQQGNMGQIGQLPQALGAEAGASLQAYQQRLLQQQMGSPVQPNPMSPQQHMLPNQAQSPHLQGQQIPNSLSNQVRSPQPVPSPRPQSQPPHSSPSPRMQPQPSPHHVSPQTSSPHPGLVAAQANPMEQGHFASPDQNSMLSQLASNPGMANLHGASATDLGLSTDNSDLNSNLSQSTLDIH
Kind of experiment: Inhibitory activity on histone acetylase p300 (radioisotope FlashPlate). Format: biochemical. Conditions: enzyme 0.2 nM, peptide substrate 600 nM, [3H]-Ac-CoA 250 nM; read-out: IC50 against P300. From the text:
Using the radioisotope FlashPlate technology, the half inhibitory concentration (IC50) of the compound according to the present invention was detected against histone acetylase p300 (purchased from BPS). […] Under the catalysis of histone acetylase p300, [3H]—Ac group in the isotope-labeled [3H]-Ac-CoA was transferred to the biotinylated histone polypeptide substrate (purchased from GL Biochem Ltd.), and then the biotinylated histone peptide substrate bound to the streptavidin on the FlashPlate board, so that the isotope was close enough to the FlashPlate board. Thus, the radiation energy of isotope could convert the scintillation fluid coated on the FlashPlate board into photons, that was able to be detected. Detailed procedures were as follows:
• 1× reaction buffer: 50 mM Tris-HCl, pH 7.5; 0.01% Tween-20 • Reaction stop solution: 750 μM Ac-CoA solution
Each test compound was dissolved into 10 mM with 100% DMSO, and then each compound was diluted to the desired concentration in Echo 384-well plate. […] 200 nl of 100% DMSO was transferred into the well as the negative control.
p300 was added to 1× reaction buffer to form a 2× enzyme solution (the final concentration of enzyme being 0.2 nM).
The peptide substrate and [3H]-Ac-CoA were added to the 1-fold reaction buffer, to form a 2-fold substrate solution (the final concentration of the substrate being 600 nM and 250 nM, respectively).
10 μl of 2-fold enzyme solution was added to the wells of 384-well reaction plate. […] The plate was centrifuged at 1000 rpm for 1 min and incubated at room temperature for 15 min.
10 μl of 2-fold substrate solution was added to each well of 384-well reaction plate. The plate was centrifuged at 1000 rpm for 1 min, and then reacted at 25° C. for 60 min.
10 μl of reaction stop solution was added to each well of 384-well reaction plate to stop the reaction. 25 μL solution was collected from each well of the test plate and transferred to Flashplate, that was placed at room temperature for 1 h. Then, Flashplate plate was washed three times with 0.1% Tween-20 solution.
4) Reading Data with MicroBeta 2
The data were copied from Microbeta 2. […] The maximum value is the conversion rate of the control DMSO, and the minimum value is the conversion rate of the control without enzyme activity.
The data were imported into Graph Pad Prism5, and the formula “log(inhibitor) vs. response−Variable slope” was used to perform curve fitting, to obtain the half inhibitory concentration (IC50).

Broadly, the IC50 is the midpoint of a concentration-inhibition curve. On to `CNC(=O)Nc1ccc2c(c1)CC[C@@]21OC(=O)N(CC(=O)N2C(C)CC[C@H]2c2cc(F)c(F)c(F)c2)C1=O` (stereo in doubt) [Example 205, 1-((R)-3′-(2-((2S,5R)-2-(3,4,5-trifluorophenyl)-5-methylpyrrolidin-1-yl)-2-oxoethyl)-2′,4′-dioxo-2,3-dihydrospiro[indene-1,5′-oxazolidine]-5-yl)-3-methylurea], for which the IC50 in experiment [1] is not above 500 nM; in experiment [2], not above 500 nM; in experiment [3], not above 500 nM; in experiment [4], not above 500 nM; in experiment [5] (MCF7, in combination with 10 nM palbociclib), 19 nM; in experiment [5] (MCF7, in combination with 30 nM palbociclib), 1.6 nM. The IC50 in experiment [5] (MCF7, in combination with 100 nM palbociclib) came out at 1.5 nM; in experiment [5] (MCF7, single agent), 81 nM; in experiment [6] it was 1.6 nM. For the same compound, the “inhibitory activity on MCF-7 cells when combined with palbociclib, versus either agent alone” value in experiment [5] (combination with CDK4/6 inhibitor palbociclib) is reported as “much higher”.
For `CNC(=O)Nc1ccc2c(c1)CC[C@@]21OC(=O)N(CC(=O)N2[C@@H](C)CC[C@H]2c2ccc(F)c(F)c2)C1=O` [Example 201], the IC50 in experiment [1] was not above 500 nM; in experiment [2], not above 500 nM; in experiment [3], not above 500 nM; in experiment [4] it was not above 500 nM; in experiment [6] it was 1.6 nM.
For the compound `CNC(=O)Nc1cc2c(cc1F)[C@@]1(CC2)OC(=O)N(CC(=O)N2[C@@H](C)CC[C@H]2c2ccc(F)c(F)c2)C1=O` [Example 389, 1-((R)-3′-(2-((2S,5S)-2-(3,4-difluorophenyl)-5-methylpyrrolidin-1-yl)-2-oxoethyl)-6-fluoro-2′,4′-dioxo-2,3-dihydrospiro[indene-1,5′-oxazolidine]-5-yl)-3-methylurea], the IC50 in experiment [1] is not above 500 nM; in experiment [2], not above 500 nM; in experiment [3] it was not above 500 nM; in experiment [4], not above 500 nM; in experiment [6], 1.9 nM.

The values are drawn from patent US20220087996A1, “Histone acetylase p300 inhibitor and use thereof” (HINOVA PHARMACEUTICALS INC., priority 2018, published 2022).
